# Source: patent US8138191B2, “Inhibitor compounds and cancer treatment methods” (Critical Outcome Technologies Inc., priority 2007, dated 2012)
# Read-outs that look alike come from different tables or passages of the source.
# Legend:
# [1] = test system: A2780 human ovarian tumor xenograft; assay: A2780 human ovarian tumor xenograft model; settings: for Day 17 CS (Complete Tumor Shrinkage): N 10
# CYP2D6 = CYP2D6 (Homo sapiens, UniProt P10635); assay: in vitro; format: in vitro ADME; settings: both sexes
# Protocol: The final incubation volume was 200 μl. […] Peak areas corresponding to metabolite were recorded.
# DMS114 cells = assay: AKT/AKT2 siRNA then COTI-2, cell viability by MTT assay, DMS114; format: cell-based, human; settings: DMS114, 500 nM COTI-2
# Protocol: Cell cultures were maintained under regular tissue culture conditions and passaged 1-2 times a week as recommended by ATCC. For siRNA experiments the manufacturer's conditions for growth and transfection were followed. All siRNA reagents for AKT and AKT2 transfections were obtained from Cell Signaling.
# Cells were treated for 48 h with 0-100 ng of AKT or AKT2 siRNA before incubation with COTI-2 at various concentrations (0-500 nM). Following incubation for 48 h, cell viability was determined by MTT assay.
# MCF-7 cells = assay: Sensitivity to COTI-2 after PTEN siRNA knockdown (alamar Blue), MCF-7; format: cell-based, human; settings: MCF-7, 48 h post-transfection
# Protocol: Briefly, HeLa and MCF-7 cells were transfected with 100 nM PTEN siRNA or control non-targeted siRNA at 48 or 144 h prior to exposure to various concentrations of COTI-2.
# To assess the capacity of transient siRNA transfection to alter the ability of cells to proliferate in the presence or absence of COTI-2, HeLa or MCF-7 cells (both PTEN-positive) were plated in T25 flasks and transfected 24 h later with PTEN siRNA or non-targeting control siRNA (100 nM in both cases), using Oligofectamine Reagent (Invitrogen) according to the manufacturer's instructions and as previously described (J Pharmacol Exp Ther, 322:123-132). […] PTEN and 18S rRNA mRNA levels were determined by semi-quantitative reverse transcription PCR. […]
# For determination of drug sensitivity, HeLa and MCF-7 cells (transfected with PTEN siRNA or control, non-targeted siRNA 48 or 144 hours prior) were re-plated in 96-well plates (VWR, Mississauga, ON, Canada) at 1700 (MCF-7) and 1200 (HeLa) cells per well in a volume of 100 μl of DMEM+10% FBS. […] Cells were then grown for 4 days, and viable cell numbers were assessed by the alamar Blue fluorescence assay using a Wallac Victor^2 multilabel counter (PerkinElmer Wallac, Gaithersburg, Md.). […]
# [2] = test system: PI3K activity in DMS114 cells; assay: PI3-K activity (PIP3 detection, Echelon kit), DMS114; format: cell-based, human; settings: DMS114, 250 nM COTI-2 alone, 20 minutes
# From the text: As a negative control, an equivalent volume of DMSO was utilized. […] To measure PI3-K activity, a commercial kit was purchased from Echelon. Following the procedures recommended by the manufacturer, membrane lipids were extracted in several steps and the resulting PIP3 was immobilized to nitrocellulose and measured by its interaction with a PH-domain containing protein and HRP-conjugated antibody supplied with the kit. As an additional control in these experiments, the specific PI3-K inhibitor, LY294002 was used to inhibit PI3-K and thus stop PIP3 production.
# A460 = assay: in vitro IC50 against cancer cell lines, A460; format: cell-based; settings: Homo sapiens, 72 h; A460, NSCLC, 3 days
# Protocol: Briefly, cells were plated in plastic tissue culture plates and grown under standard conditions for each cell line, in carbon dioxide/oxygen atmosphere in plastic tissue culture plates, in the presence of COTI-2 or COTI-219 compounds at 35° C. for 3 days. Control cultures were treated with vehicle minus compound. Cells were counted after 3 days in culture and at a cell density of no more than 80%. The following cell lines, obtained from the National Cancer Institute, were tested: human SCLC cell lines DMS153, DMS114, SHP77; human NSCLC cell lines H226, A460, A560; human breast cancer cell lines T47D, MCF7; human colon cancer cell line HT29; and, human Leukemia cell lines K562, HL60.
# cleaved caspases 3 and 9 = assay: Cleaved caspase 3 and 9 by western blot after COTI-219; format: cell-based, human; settings: 12 h incubation, dose-dependent increase
# Protocol: Cell viability assays were performed 24 to 48 h following incubation with COTI-219 by the trypan blue exclusion method using a Beckman-Coulter Vi-CELL XR 2.03 automated cell counter. Routine laboratory methods were employed for the production of cellular lysates, protein quantitation, SDS-PAGE and western blotting. All antibodies were obtained from Cell Signaling (Erk1/2 #4695, Ras #3965, CDK2 #2546, PKCalpha #2056, EGFR #2232, and ERBB2 #2165).
# In lung cancer, oncogenic Ras exerts anti-apoptotic effects, in part by up-regulating the multi-functional PKB/AKT kinase. Activated PKB/AKT phosphorylates and inhibits caspase 9 activation. In order to determine whether caspase 9 activation mediates COTI-219 apoptosis, cells were incubated for 12 h with vehicle or increasing concentrations of COTI-219 and the expression levels of cleaved caspases 3 and 9 were determined. There was a dose-dependent increase in the levels of both cleaved caspases, peaking at 0.5 μM of COTI-219. Beyond this concentration, activated caspase 9 was not detectable and there was a decline in cleaved caspase 3.
# Sequence of CYP2D6 (P10635 whole entry): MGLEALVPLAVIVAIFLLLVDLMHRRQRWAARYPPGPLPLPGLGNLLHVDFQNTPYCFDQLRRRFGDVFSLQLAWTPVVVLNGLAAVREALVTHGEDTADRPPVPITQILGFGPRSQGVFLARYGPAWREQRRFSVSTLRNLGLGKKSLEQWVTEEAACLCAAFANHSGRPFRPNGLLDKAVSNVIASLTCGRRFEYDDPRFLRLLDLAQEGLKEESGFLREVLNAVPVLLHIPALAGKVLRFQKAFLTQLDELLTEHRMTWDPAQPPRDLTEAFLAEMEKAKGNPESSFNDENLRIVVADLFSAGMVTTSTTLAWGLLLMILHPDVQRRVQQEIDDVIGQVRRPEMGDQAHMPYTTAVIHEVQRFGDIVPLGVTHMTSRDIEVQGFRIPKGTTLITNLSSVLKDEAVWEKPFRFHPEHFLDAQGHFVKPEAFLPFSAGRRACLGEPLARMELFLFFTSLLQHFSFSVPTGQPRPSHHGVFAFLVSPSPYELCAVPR
SMILES,Day 17 Mean tumor weight ([1]; COTI-2 12.5 mg/kg IV),Day 17 TGI ([1]; COTI-2 12.5 mg/kg IV) [%],"Maximum weight loss (%) (Day #) ([1]; COTI-2 12.5 mg/kg IV, Day 11)",Day 17 CS (Complete Tumor Shrinkage) ([1]; COTI-2 12.5 mg/kg IV),Day 17 Mean tumor weight ([1]; COTI-2 50.0 mg/kg IV),Day 17 TGI ([1]; COTI-2 50.0 mg/kg IV) [%],"Maximum weight loss (%) (Day #) ([1]; COTI-2 50.0 mg/kg IV, Day 8)",Day 17 CS (Complete Tumor Shrinkage) ([1]; COTI-2 50.0 mg/kg IV),"inhibition at 15 min, 10 µM (CYP2D6; human liver microsomes, pH 7.4, probe dextromethorphan (10 µM), CYP2D6, HLM, dextromethorphan substrate, 1.0E−05 M, read-out: % Inhibition of Control Values) [%]","inhibition at 15 min, 10 µM (CYP2D6; liver microsomes, pH 7.4, probe dextromethorphan, CYP2D6, 10 μM, read-out: percent inhibition) [%]",cytotoxicity after AKT2 knock-down by siRNA (DMS114 cells),resistance to COTI-2 after PTEN siRNA transfection (MCF-7 cells),increase in PI3K activity (PIP3 levels) [2],IC50 (A460) [µM],concentration at which levels of cleaved caspases 3 and 9 peak (cleaved caspases 3 and 9) [µM]
S=C(N/N=C1/CCCc2cccnc21)N1CCN(c2ccccn2)CC1 [COTI-2],"1,699.2 ± 241.4 mg",22.04,10.35% (Day 11),0,"1,622.8 ± 403.0 mg",25.76,8.65% (Day 8),0,2,< 50,unable to exert additional significant cytotoxicity,significant increase in the resistance,approximately 25%,7.9,–
CN1CCN(C(=S)NN=C2c3ncccc3-c3cccnc32)CC1 [COTI-219],–,–,–,–,–,–,–,–,–,–,–,–,–,–,0.5
